In patent US9782398B2, “Pharmaceutical compositions comprising an antipsychotic drug and a VMAT2 inhibitor and uses thereof” (NEUROCRINE BIOSCIENCES, INC., priority 2014, dated 2017):
Entries after “also recorded” stand apart in the source; their conditions may differ.

System: Male Wistar rats
Assay: Conditioned avoidance response (CAR) test of antipsychotic activity
Assay type: in vivo, rat
Settings: for ED50: Rattus norvegicus, ip, read-out: ED50 (escape response), dose required to produce 50% of the maximum response; for dose of compound required to produce 5 escapes / dose of compound required to produce 8 escapes: from fitted line
Text: In the CAR paradigm, a rat is trained in a two chamber shuttle box to respond to a conditioned stimulus (auditory) by negative reinforcement. If the animal fails to move to the other chamber upon presentation of an auditory stimulus, a mild foot shock is applied to the side where the rat is located. The rat learns to avoid the mild foot shock by moving to the other chamber upon initiation of the auditory signal, termed a conditioned avoidance response. Crossing to the other chamber during administration of the shock is termed an escape response. If a rat fails to move to the other chamber even upon administration of the foot shock, the rat is considered to have an escape failure.
Rats were trained every day for 3 to 4 weeks. In the training session, rats were placed in the CAR two-way shuttle box and the training period of 20 trials ensued. A trial consisted of a 10-sec presentation of an 80 dB white noise followed by a scrambled 0.6 mA foot shock lasting up to 20 sec. The inter-trial interval ranged from 20-60 sec. The rat learned to avoid shock by moving from one compartment to the other when the conditioned stimulus was presented (a conditioned avoidance response). A rat was deemed sufficiently trained if it avoided the shock when presented with the conditioned stimulus at least 19 times out of the 20 trials.
On test day, trained animals were acclimated in the test room for 30 minutes prior to testing. They were then dosed with compound and placed in the CAR two-way shuttle box. In the test, 20 trials were performed on each rat. In each trial the conditioned stimulus was applied (10-sec presentation of 80 dB white noise), followed by the foot shock (a scrambled 0.6 mA foot shock lasting up to 20 sec). If the animal moved to the other chamber on presentation of the conditioned stimulus, it was scored as a conditioned avoidance response. If it moved upon presentation of the foot shock, it was scored as an escape. […] Antipsychotic efficacy is evident by an increase in the number of escapes. Data were analyzed by analysis of variance (ANOVA) followed by post-hoc comparisons with the Bonferroni Test when appropriate. An effect is considered significant if p<0.05. Outliers defined as two standard deviations above or below the mean were detected and were removed from all analysis. Results are reported as mean±SEM for number of escapes.
Animals: Male Wistar rats from Harlan (Indianapolis, Ind.) were used in the study. Upon receipt, rats were assigned unique identification numbers and were group housed with 3 rats per cage in polycarbonate cages with micro-isolator filter tops. All rats were examined, handled, and weighed prior to initiation of the study to assure adequate health and suitability. The rats were maintained at 12/12 light/dark cycle with lights on at 6:00 A.M. The room temperature was maintained between 20 and 23° C. with a relative humidity maintained around 50%. Chow and water were provided ad libitum for the duration of the study. For each test, animals were randomly assigned across treatment groups. Each treatment group contained 10 animals at time of testing.
Test Compounds: Risperidone (0.03, 0.1, 0.3, and 1 mg/kg) was dissolved in 10% DMSO and administered i.p. 30 min prior to testing at a dose volume of 1 ml/kg. […] The vehicle control group received 10% DMSO (i.p., 30 min pretreatment, 1 ml/kg) immediately followed by administration of sterile water (p.o., 1 ml/kg).
Test Compounds: Olanzapine (0.3, 0.6, 1 and 3 mg/kg) was dissolved in 10% DMSO and administered i.p. 30 min prior to testing at a dose volume of 1 ml/kg.
10% DMSO (i.p., 30 min pretreatment, 1 ml/kg) immediately followed by administration of sterile water (p.o., 1 ml/kg) was used as the vehicle control group.
Test Compounds: Risperidone (0.1, 0.3, and 1 mg/kg) was dissolved in 10% DMSO and administered i.p. 30 min prior to testing at a dose volume of 1 ml/kg.

[1] = combination with R,R,R-DHTBZ 0.15 mg/kg vs olanzapine singly, rat
[2] = olanzapine i.p. administered singly, rat
[3] = combination with Compound 5-1 0.3 mg/kg vs risperidone singly, rat
[4] = combination with R,R,R-DHTBZ 0.15 mg/kg vs risperidone singly, rat
[5] = risperidone i.p. administered singly, rat

Q: Which “number of escapes compared to vehicle” value (Compound 5-1 0.3 mg/kg p.o. administered singly, 60 min prior to testing, rat, 0.3 mg/kg) does the source give for `COc1cc2c(cc1OC)[C@H]1C[C@@H](CO)[C@H](CC(C)C)CN1CC2` [Compound 5-1, [(2R,3S,11bR)-9,10-Dimethoxy-3-(2-methylpropyl)-1H,2H,3H,4H,6H,7H,11bH-pyrido[2,1-a]isoquinolin-2-yl]methanol] here?
A: did not result in changes from the vehicle results; also recorded: showed no antipsychotic activity; also recorded: did not increase

Q: Which results are given for `COc1cc2c(cc1OC)[C@H]1C[C@@H](O)[C@H](CC(C)C)CN1CC2` [R,R,R-DHTBZ, (2R,3R,11bR)-3-isobutyl-9,10-dimethoxy-1,3,4,6,7,11b-hexahydro-2H-pyrido[2,1-a]isoquinolin-2-ol]?
A: number of escapes compared to vehicle (R,R,R-DHTBZ 0.15 mg/kg p.o. administered singly, 30 min prior to testing, rat): did not increase; also recorded: did not result in changes from the vehicle results; number of escapes compared to vehicle (R,R,R-DHTBZ 0.15 mg/kg p.o. administered singly, 30 min prior to testing, rat, listed as R,R,R DHTBZ): showed no antipsychotic activity

Q: With `Cc1cc2c(s1)Nc1ccccc1N=C2N1CCN(C)CC1` [olanzapine] as the compound, how does the ED50 read?
A: 1.2 mg/kg

Q: And the “reduction of the olanzapine dose” value (combination with Compound 5-1 0.3 mg/kg vs olanzapine singly, rat)?
A: 80%

Q: What about the “decrease of ED50 of olanzapine” value [1] of the same compound?
A: approximately 2 fold

Q: What about the “reduction of the olanzapine dose” value [1] of the same compound?
A: 50%

Q: What about the “dose necessary to show antipsychotic efficacy in the CAR paradigm” value [2] of the same compound?
A: 1 mg/kg

Q: What about the “dose of compound required to produce 5 escapes” value [2] of the same compound?
A: 0.93 mg/kg

Q: And the “dose of compound required to produce 5 escapes” value (olanzapine i.p. in combination with Compound 5-1 0.3 mg/kg p.o., rat)?
A: 0.18 mg/kg

Q: What about the “dose of olanzapine resulting in antipsychotic activity” value (olanzapine i.p. with addition of Compound 5-1 0.3 mg/kg p.o., rat) of the same compound?
A: 0.6 mg/kg

Q: What about the “dose of olanzapine resulting in antipsychotic activity” value (olanzapine i.p. with addition of R,R,R-DHTBZ 0.15 mg/kg p.o., rat) of the same compound?
A: 0.6 mg/kg

Q: Which ED50 does the source give for `Cc1nc2n(c(=O)c1CCN1CCC(c3noc4cc(F)ccc34)CC1)CCCC2` [risperidone] here?
A: 0.14 mg/kg

Q: What about the “decrease of risperidone dose required to produce 8 escapes” value [3] of the same compound?
A: approximately 7 fold

Q: And the “reduction of the risperidone dose” value [3]?
A: 86%

Q: And the “decrease of ED50 of risperidone” value [4]?
A: approximately 6 fold

Q: And the “reduction of the risperidone dose” value [4]?
A: 83%

Q: And the “number of escapes compared to vehicle” value (risperidone 0.1 mg/kg i.p. administered singly, 30 min prior to testing, rat)?
A: did not result in changes from the vehicle results; also recorded: did not increase

Q: And the “dose necessary to show antipsychotic efficacy in the CAR paradigm” value [5]?
A: 0.3 mg/kg

Q: And the “dose of compound required to produce 8 escapes” value [5]?
A: 0.26 mg/kg

Q: And the “dose of compound required to produce 8 escapes” value (risperidone i.p. in combination with Compound 5-1 0.3 mg/kg p.o., rat)?
A: 0.038 mg/kg

Q: And the “doses of risperidone resulting in antipsychotic activity” value (risperidone i.p. with addition of Compound 5-1 0.3 mg/kg p.o., rat)?
A: 0.1 mg/kg
